# Reference: US11800869B2, “Use of 6-oxo-1,4,5,6-tetrahydropyridazine-3-carboxylic acid, 1-methyl 6-oxo-1,4,5,6-tetrahydropyridazine-3-carboxylic acid and 1-alkyl-6-oxo-1,4,5,6-tetrahydropyridazine-3-carboxylic acid for improving growth performance in plants” (Advanced Crop Chem LLP, priority 2020, dated 2023)
# What was measured:
# Assay type in all cases: in vivo
# Wheat = Wheat seed treatment, field grown, root biomass (Example 7); details: untreated 0.66
# Procedure: Wheat seeds were treated with 1-methyl 6-oxo-1,4,5,6 tetrahydropyridazine-3-carboxylic acid treated plants to examine the impact on root biomass for field grown plants. Wheat seeds were treated with 1-methyl 6-oxo-1,4,5,6 tetrahydropyridazine-3-carboxylic acid and field grown. The plants from seeds treated with 1-methyl 6-oxo-1,4,5,6 tetrahydropyridazine-3-carboxylic acid had larger root biomass (0.84 g dry weight/plant) compared with plants from untreated seeds (0.66 g dry weight/plant).
# [1] = test system: Field grown wheat plants (Var: AWC 13); test: Foliar treatment of field grown wheat (Example 6); details: foliar treatment at Zadoks GS 25-26, 100 g in 200 L water, mean of 10 plants
# Procedure: Field grown wheat plants (Var: AWC 13) were given foliar treatment at Zadoks GS 25-26 (FIG. 1) of 6-oxo-1,4,5,6 tetrahydropyridazine-3-carboxylic acid (THP) or 1-methyl 6-oxo-1,4,5,6 tetrahydropyridazine-3-carboxylic acid (MTHP) both at 100 g in 200 L water plus 0.25% Nouryon wetter. Plants were grown under standard UK wheat growing cultural practice (https://andb.org.uk/wheatgg). Yield was assessed at harvest.
# [2] = test system: wheat plants (Variety Skyfall); test: Foliar treatment of greenhouse grown wheat, foliar and root biomass (Example 4); details: foliar treatment, 30 days later, Zadocks growth stage 22-24
# Procedure: Wheat, corn and pepper seeds were treated with 6-oxo-1,4,5,6-tetrahydropyridizine-3-carboxylic acid (THP) using the same methodology and growth conditions as described in example 1 and the resulting plants were also treated with a light foliar cover spray using an electric hand-held sprayer. (100 g in 200 L water plus 0.25% Nouryon wetter) of 6-oxo-1,4,5,6 tetrahydropyridazine-3-carboxylic acid (30 days post emergence (wheat at Zadoks GS 14 (see FIG. 1), maize at V2, Pepper at 3-4 leaf stage) and then assessed for root and shoot biomass 45 days later. At 75 days post planting the plants were assessed for root and shoot biomass as measured with dry weight. Greenhouse grown wheat plants (Variety […]) were given foliar treatment of 1-methyl 6-oxo-1,4,5,6 tetrahydropyridazine-3-carboxylic acid (MTHP) or 6-oxo-1,4,5,6 tetrahydropyridazine-3-carboxylic acid (THP), utilizing the same methodology as in example 2. Foliar and root biomass were determined 30 days later at Zadocks growth stage 22-24.
# [3] = test system: Wheat plants (Variety AWC 13); test: Foliar treatment of wheat, foliar and root dry biomass (Example 5); details: foliar treatment at Zadoks GS 15-20, 30 days after application, mean of 10 plants
# Source text: Wheat plants (Variety AWC 13) were given a foliar treatment of 6-oxo-1,4,5,6-tetrahydropyridazine-3-carboxylic acid(THP) or 1-methyl 6-oxo-1,4,5,6 tetrahydropyridazine-3-carboxylic acid (MTHP) and their foliar and root dry biomass determined 30 days after application. The foliar applications were applied at approximately at Zadoks GS 15-20 (see FIG. 1) and assessed 30 days later at Zadoks GS 22-24 (also shown in FIG. 1).
# [4] = test system: Winter wheat variety AWC 13; test: Wheat seed treatment, greenhouse, root biomass (Example 1); details: seed treatment 10g per 1 ton of seed; greenhouse 21° C; 30 days after planting; untreated 0.65
# Procedure: Wheat seeds were treated with 6-oxo-1,4,5,6 tetrahydropyridazine-3-carboxylic acid (THP) and treated plants to examine the impact on shoot and root biomass. Winter wheat variety AWC 13 seeds were treated with either 6-oxo-1,4,5,6-tetrahydropyridazine-3-carboxylic acid (THP) or 1-methyl 6-oxo-1,4,5,6 tetrahydropyridazine-3-carboxylic acid (MTHP) at an effective rate of 10g diluted in 2 L water plus 0.25% Nouryon wetter and applied to 1 ton of seed. These seed were planted in coarse river sand and grown in a greenhouse under ambient light at the greenhouse at 21° C. Plants were irrigated every other day with water containing 50% strength Hoaglands solution. Plants were assessed for emergence and biomass accumulation 30 days after planting. The plants from seeds treated with 6-oxo-1,4,5,6-tetrahydropyridizin-3-carboxylic acid or 1-methyl 6-oxo-1,4,5,6 tetrahydropyridazine-3-carboxylic acid had larger root biomasses (0.83, 0.85 g, dry weight/plant) compared with plants from untreated seeds (0.65 g dry weight/plant).
smiles,measurement,setting,value
"CN1N=C(C(=O)O)CCC1=O [MTHP, 1-methyl 6-oxo-1,4,5,6 tetrahydropyridazine-3-carboxylic acid]",root biomass,Wheat,0.84 g dry weight/plant
same,Dry Weight Shoot,[1]; Con 0.47,0.98
same,Dry Weight Root,[1]; Con 0.65,2.06
same,Dry Weight Shoot,[2]; Con 0.55,0.7 g
same,Dry Weight Root,[2]; Con 1.03,1.64 g
same,Dry Weight Shoot,[3]; Con 0.47,0.98
same,Dry Weight Root,[3]; Con 0.65,2.06
same,root biomass,[4],"0.85 g, dry weight/plant"
